Biological target: T1, mTRPC5 (Mus musculus, UniProt Q9QX29)
T1 construct: expressed in transfected cells
T1 sequence (Q9QX29 1-975): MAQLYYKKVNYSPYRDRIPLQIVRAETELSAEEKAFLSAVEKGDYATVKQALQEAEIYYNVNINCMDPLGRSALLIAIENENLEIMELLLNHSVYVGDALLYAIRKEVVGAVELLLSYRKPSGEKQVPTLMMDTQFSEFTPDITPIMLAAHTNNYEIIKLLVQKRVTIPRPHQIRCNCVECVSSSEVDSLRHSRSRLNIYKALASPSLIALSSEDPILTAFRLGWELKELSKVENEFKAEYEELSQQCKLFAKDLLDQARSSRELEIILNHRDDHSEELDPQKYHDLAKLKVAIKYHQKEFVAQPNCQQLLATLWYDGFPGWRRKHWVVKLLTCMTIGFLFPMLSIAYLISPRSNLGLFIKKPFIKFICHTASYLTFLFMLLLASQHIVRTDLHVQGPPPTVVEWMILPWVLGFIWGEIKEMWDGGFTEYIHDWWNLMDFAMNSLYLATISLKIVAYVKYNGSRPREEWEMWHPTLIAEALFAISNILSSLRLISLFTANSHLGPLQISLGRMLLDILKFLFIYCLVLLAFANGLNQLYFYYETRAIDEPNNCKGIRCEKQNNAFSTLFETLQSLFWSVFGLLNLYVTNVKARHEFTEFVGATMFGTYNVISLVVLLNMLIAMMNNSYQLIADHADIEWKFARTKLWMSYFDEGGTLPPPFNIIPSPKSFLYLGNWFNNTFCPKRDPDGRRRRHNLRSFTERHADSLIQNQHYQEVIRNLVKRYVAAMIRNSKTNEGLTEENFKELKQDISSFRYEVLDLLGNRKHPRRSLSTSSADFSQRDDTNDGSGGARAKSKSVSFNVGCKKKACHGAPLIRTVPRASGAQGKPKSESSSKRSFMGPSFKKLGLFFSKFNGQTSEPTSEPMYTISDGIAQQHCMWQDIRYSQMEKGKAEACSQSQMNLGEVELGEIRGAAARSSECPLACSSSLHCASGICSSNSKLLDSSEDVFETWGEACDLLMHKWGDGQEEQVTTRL
Assay: Trypsin-induced Ca2+ entry, fluo-4 fluorometric imaging plate reader, TRPC5 HEK-FITR cells
Assay type: cell-based
Description: Cells were grown at 37°C in a humidified atmosphere (5% or 7% CO2) under standard cell culture conditions. Stable human embryonic kidney (HEK) cell lines expressing recombinant mTRPC4ß (GenBank accession number AAC05178); mTRPC5 (GenBank accession number NM_009428) or hTRPC6 (GenBank accession number AF080394) under the control of a tetracycline-inducible promoter were generated using the Flp-In T-Rex (FITR) system (Invitrogen, Karlsruhe, Germany). […]
Cells grown to an almost confluent monolayer on black poly-D-lysine coated 96-well plates (Greiner, Frickenhausen, Germany) were washed with standard extracellular solution (140 mM NaCl, 1 mM MgCl2, 5.4 mM KCl, 2 mM CaCl2, 10 mM HEPES, 10 mM glucose, pH 7.35) and stained (30 min, room temperature) with dye solution (2 µM fluo-4 AM, 0.02% pluronic F127, 0.1% bovine serum albumin in standard extracellular solution). […] Fluo-4 fluorescence was excited at 488 nm with an argon laser and measured using a fluorometric imaging plate reader (Molecular Devices, Sunnyvale, USA). […]
TRPC4- and TRPC5-mediated Ca^2+ influx was stimulated by application of trypsin that activates endogenous Gq-coupled protease activated receptors in HEK cells. […] Compound effects were then calculated from the area under the curve and normalized to the Ca^2+ influx into trypsin-stimulated, non-compound-treated cells. […]

CC(=O)[C@H]1CC[C@H]2[C@@H]3CCC4=CC(=O)CC[C@]4(C)[C@H]3CC[C@]12C [progesterone]
IC50 (TRPC5 HEK-FITR cells, fluo-4, 200 nM trypsin, read-out: IC50, inhibition of trypsin-induced Ca2+ entry via TRPC5): 11.8 µM
Hill slope n, inhibition of TRPC5-mediated Ca2+ entry (fit to Hill model): 2.5

From PMC3328449, “Inhibition of Diacylglycerol–Sensitive TRPC Channels by Synthetic and Natural Steroids” (PLoS ONE, 2012)
